# Data published in article PMC9154192 (PLoS Biology, 2022).
# Where “and” joins values, the source holds several entries; their conditions need not be identical. Equal entries are not always repeated. Where two headings read alike, the source gives them in different places.
# Columns and labels:
# [1] = tested on: M. bovis; test: microbe, parasite or virus in culture; format: cell-based; conditions: Mycobacterium tuberculosis variant bovis
# [2] = tested on: XDR M. tuberculosis (KMRC 00203–00197); format: cell-based, Mycobacterium tuberculosis
# [3] = tested on: M. phocaicum; test: microbe, parasite or virus in culture; format: cell-based, Mycobacterium phocaicum; conditions: Mycolicibacterium phocaicum
# [4] = tested on: M. neoaurum; test: microbe, parasite or virus in culture; format: cell-based, Mycobacterium neoaurum; conditions: Mycolicibacterium neoaurum
# [5] = tested on: Salmonella Paratyphi A; test: Broth dilution MIC (CLSI); format: cell-based; conditions: Salmonella enterica
# From the text: (§1) Bacteria (Acinetobacter baumannii NCCP 14782, Citrobacter freundii NCCP 14766, Enterobacter aerogenes NCCP 14761, Escherichia coli NCCP 14762, Escherichia coli O157 NCCP 14541, Klebsiella pneumoniae NCCP 14764, Proteus mirabilis NCCP 14763, Proteus vulgaris NCCP 14765, Pseudomonas aeruginosa NCCP 14781, Salmonella Enteritidis NCCP 14771, Salmonella Paratyphi A NCCP 14759, Salmonella Typhimurium NCCP 16207, Serratia marcescens NCCP 14770, Shigella boydii NCCP 14745, Shigella dysenteriae NCCP 14746, Shigella flexneri NCCP 14744, Shigella sonnei NCCP 14773, Bacillus subtilis NCCP 11101, Corynebacterium diphtheriae NCCP 10353, Staphylococcus aureus MSSA NCCP 14780, Staphylococcus aureus MRSA NCCP 14769, Staphylococcus epidermidis NCCP 14768, Streptococcus pneumoniae NCCP 14774) and fungi (Aspergillus fumigatus NCCP 22454, Candida albicans NCCP 32557, Cryptococcus neoformans NCCP 32559, Microsporum canis NCCP 22454, Rhizopus oryzae NCCP 22458, Saccharomyces cerevisiae NCCP 32558, Trichophyton rubrum NCCP 22456) strains were obtained from the National Culture Collection for Pathogens (NCCP) (Chungbuk, Korea). The MIC of each agent was determined following the Clinical and Laboratory Standards Institute (CLSI).[40]
# [6] = tested on: Streptococcus pneumoniae; test: Broth dilution MIC (CLSI); format: cell-based
# From the text: as §1
# [7] = tested on: Acinetobacter baumannii; test: Broth dilution MIC (CLSI); format: cell-based
# From the text: as §1
# [8] = tested on: Cryptococcus neoformans; test: Broth dilution MIC (CLSI); format: cell-based
# From the text: as §1
# [9] = tested on: Pseudomonas aeruginosa; test: Broth dilution MIC (CLSI); format: cell-based
# From the text: as §1
# [10] = tested on: Escherichia coli O157; test: Broth dilution MIC (CLSI); format: cell-based
# From the text: as §1
# [11] = tested on: Shigella dysenteriae; test: Broth dilution MIC (CLSI); format: cell-based
# From the text: as §1
# [12] = tested on: Shigella sonnei; test: Broth dilution MIC (CLSI); format: cell-based
# From the text: as §1
# [13] = tested on: Staphylococcus aureus, MRSA; test: Broth dilution MIC (CLSI); format: cell-based
# From the text: as §1
# [14] = tested on: Saccharomyces cerevisiae; test: Broth dilution MIC (CLSI); format: cell-based
# From the text: as §1
# [15] = tested on: Enterobacter aerogenes; test: Broth dilution MIC (CLSI); format: cell-based; conditions: Klebsiella aerogenes
# From the text: as §1
# [16] = tested on: Citrobacter freundii; test: Broth dilution MIC (CLSI); format: cell-based
# From the text: as §1
# [17] = in vitro; format: cell-based, murine; conditions: mouse
# Method: (§2) A549 human pulmonary epithelial cells (KCLB 10185), human embryonic kidney (HEK) 293 cells (KCLB 21573), human THP-1 leukemia cells (KCLB 40202), human neuroblastoma SH-SY5Y cells (KCLB 22266), Murine Raw 264.7 macrophages (KCLB 40071), and L929 murine fibroblasts (KCLB 10001) were purchased from the KCLB (Seoul, Korea). Cytotoxicity testing was performed using the MTT assay and the WST-1 cell viability assay as previously described.
# [18] = in vitro; format: cell-based; conditions: human
# Method: as §2
# [19] = tested on: M. phlei; test: microbe, parasite or virus in culture; format: cell-based, Mycobacterium phlei; conditions: Mycolicibacterium phlei
structure (smiles),measurement,setting,value
"CO[C@H]1/C=C/O[C@@]2(C)Oc3c(C)c(O)c4c(O)c(c(/C=N/N5CCN(C)CC5)c(O)c4c3C2=O)NC(=O)/C(C)=C\C=C\[C@H](C)[C@H](O)[C@@H](C)[C@@H](O)[C@@H](C)[C@H](OC(C)=O)[C@@H]1C [RIF, rifampicin, reference compound]",MIC,[1],0.1 µg/mL
same,CFU (log),[2],4.63 and 4.77
same,"CFU (replicates1-3), single values",[2],56400 CFU and 14000 CFU and 26700 CFU and 25200 CFU and 51000 CFU and 59000 CFU and 55000 CFU and 48000 CFU and 53000 CFU and 44900 CFU and 67000 CFU (2×) and 75100 CFU and 66500 CFU and 63000 CFU and 65000 CFU and 35000 CFU and 41000 CFU
same,log reduction (CFU),"[2]; at 12.5 μg/ml, 7 days",0.6
same,MIC,[3],25 µg/mL
same,MIC,[4],0.2 µg/mL
same,MIC,[5]; PARATYPHI,12.5 µg/mL
same,MIC,[6],0.05 µg/mL
same,MIC,[7],3.1 µg/mL
same,MIC,[8],> 100 µg/mL
same,MIC,[9],25 µg/mL
same,MIC,[10],3.1 µg/mL
same,MIC,[11],1.6 µg/mL
same,MIC,[12],3.1 µg/mL
same,MIC,[13],0.05 µg/mL
same,MIC,[14],> 100 µg/mL
same,MIC,[15],6.3 µg/mL
same,MIC,[16],25 µg/mL
same,CC50,[17]; L929,> 500 µg/mL
same,CC50,[17]; Raw264.7,> 500 µg/mL
same,CC50,[18]; A549,> 500 µg/mL
same,CC50,[18]; HEK-293,> 500 µg/mL
same,CC50,[18]; SH-SY5Y,> 500 µg/mL
same,CC50,[18]; THP-1,> 500 µg/mL
same,MIC,[19],25 µg/mL
"[H]/N=C(/N)N[C@H]1[C@H](O)[C@@H](O)[C@H](O[C@@H]2O[C@@H](C)[C@](O)(C=O)[C@H]2O[C@@H]2O[C@@H](CO)[C@H](O)[C@@H](O)[C@@H]2NC)[C@@H](N/C(N)=N\[H])[C@@H]1O [STR, streptomycin]",MIC,[1],0.4 µg/mL
same,MIC,[3],6.3 µg/mL
same,MIC,[4],0.8 µg/mL
same,MIC,"[5]; Salmonella Paratyphi A, read-out: MIC",6.3 µg/mL
same,MIC,[6]; read-out: MIC,12.5 µg/mL
same,MIC,[7]; read-out: MIC,6.3 µg/mL
same,MIC,[8]; read-out: MIC,> 100 µg/mL
same,MIC,[9]; read-out: MIC,25 µg/mL
same,MIC,[10]; read-out: MIC,6.3 µg/mL
same,MIC,[11]; read-out: MIC,25 µg/mL
same,MIC,[12]; read-out: MIC,3.1 µg/mL
same,MIC,[13]; read-out: MIC,3.1 µg/mL
same,MIC,[14]; read-out: MIC,> 100 µg/mL
same,MIC,"[15]; Enterobacter aerogenes, read-out: MIC",3.1 µg/mL
same,MIC,[16]; read-out: MIC,1.6 µg/mL
same,MIC,[19],0.2 µg/mL
